Experiments:
Assay type in all cases: functional
A549 = experiment: Cytotoxicity against human A549 cells after 48 hrs by SRB assay; conditions: A549, 48 h
MDA-MB-435 = experiment: Growth inhibition of human MDA-MB-435 cells assessed as cell growth at 10^-8 M incubated for 48 hrs by sulforhodamine B assay relative to control; conditions: MDA-MB-435, 48 h, read-out: Activity
HCT-15 = experiment: Growth inhibition of human HCT15 cells assessed as cell growth at 10^-7 M incubated for 48 hrs by sulforhodamine B assay relative to control; conditions: HCT-15, 48 h, read-out: Activity
U-251 = experiment: Growth inhibition of human U251 cells assessed as cell growth at 10^-7 M incubated for 48 hrs by sulforhodamine B assay relative to control; conditions: U-251, 48 h, read-out: Activity
SK-MEL-2 [1] = experiment: Growth inhibition of human SK-MEL-2 cells assessed as cell growth at 10^-7 M incubated for 48 hrs by sulforhodamine B assay relative to control; conditions: SK-MEL-2, 48 h, read-out: Activity
MCF7 = experiment: Growth inhibition of human MCF7 cells assessed as cell growth at 10^-6 M incubated for 48 hrs by sulforhodamine B assay relative to control; conditions: MCF7, 48 h, read-out: Activity
NCI-H322M [2] = experiment: Growth inhibition of human NCI-H322M cells assessed as cell growth at 10^-5 M incubated for 48 hrs by sulforhodamine B assay relative to control; conditions: read-out: Activity
COLO 205 = experiment: Growth inhibition of human COLO205 cells assessed as cell growth at 10^-6 M incubated for 48 hrs by sulforhodamine B assay relative to control; conditions: COLO 205, 48 h, read-out: Activity
LOX IMVI [3] = experiment: Growth inhibition of human LOXIMVI cells assessed as cell growth at 10^-6 M incubated for 48 hrs by sulforhodamine B assay relative to control; conditions: read-out: Activity
SK-OV-3 [4] = experiment: Growth inhibition of human SKOV3 cells assessed as cell growth at 10^-6 M incubated for 48 hrs by sulforhodamine B assay relative to control; conditions: SK-OV-3, 48 h, read-out: Activity
HOP-62 = experiment: Growth inhibition of human HOP62 cells assessed as cell growth at 10^-5 M incubated for 48 hrs by sulforhodamine B assay relative to control; conditions: HOP-62, 48 h, read-out: Activity
SNB-75 [5] = experiment: Growth inhibition of human SNB75 cells assessed as cell growth at 10^-5 M incubated for 48 hrs by sulforhodamine B assay relative to control; conditions: SNB-75, 48 h, read-out: Activity
SK-MEL-2 [6] = experiment: Growth inhibition of human SK-MEL-2 cells assessed as cell growth at 10^-5 M incubated for 48 hrs by sulforhodamine B assay relative to control; conditions: SK-MEL-2, 48 h, read-out: Activity
SK-MEL-5 = experiment: Growth inhibition of human SK-MEL-5 cells assessed as cell growth at 10^-5 M incubated for 48 hrs by sulforhodamine B assay relative to control; conditions: SK-MEL-5, 48 h, read-out: Activity
OVCAR-8 = experiment: Growth inhibition of human OVCAR8 cells assessed as cell growth at 10^-5 M incubated for 48 hrs by sulforhodamine B assay relative to control; conditions: OVCAR-8, 48 h, read-out: Activity
A498 [7] = experiment: Growth inhibition of human A498 cells assessed as cell growth at 10^-5 M incubated for 48 hrs by sulforhodamine B assay relative to control; conditions: A498, 48 h, read-out: Activity
HL-60(TB) = experiment: Growth inhibition of human HL-60(TB) cells assessed as cell growth at 10^-4 M incubated for 48 hrs by sulforhodamine B assay relative to control; conditions: HL-60, 48 h, read-out: Activity
RPMI-8226 = experiment: Growth inhibition of human RPMI8226 cells assessed as cell growth at 10^-4 M incubated for 48 hrs by sulforhodamine B assay relative to control; conditions: RPMI-8226, 48 h, read-out: Activity
NCI-H23 = experiment: Growth inhibition of human NCI-H23 cells assessed as cell growth at 10^-4 M incubated for 48 hrs by sulforhodamine B assay relative to control; conditions: NCI-H23, 48 h, read-out: Activity
NCI-H322M [8] = experiment: Growth inhibition of human NCI-H322M cells assessed as cell growth at 10^-4 M incubated for 48 hrs by sulforhodamine B assay relative to control; conditions: read-out: Activity
NCI-H522 = experiment: Growth inhibition of human NCI-H522 cells assessed as cell growth at 10^-4 M incubated for 48 hrs by sulforhodamine B assay relative to control; conditions: NCI-H522, 48 h, read-out: Activity
SNB-19 = experiment: Growth inhibition of human SNB19 cells assessed as cell growth at 10^-4 M incubated for 48 hrs by sulforhodamine B assay relative to control; conditions: SNB-19, 48 h, read-out: Activity
SNB-75 [9] = experiment: Growth inhibition of human SNB75 cells assessed as cell growth at 10^-4 M incubated for 48 hrs by sulforhodamine B assay relative to control; conditions: SNB-75, 48 h, read-out: Activity
LOX IMVI [10] = experiment: Growth inhibition of human LOXIMVI cells assessed as cell growth at 10^-4 M incubated for 48 hrs by sulforhodamine B assay relative to control; conditions: read-out: Activity
SK-MEL-28 = experiment: Growth inhibition of human SK-MEL-28 cells assessed as cell growth at 10^-4 M incubated for 48 hrs by sulforhodamine B assay relative to control; conditions: SK-MEL-28, 48 h, read-out: Activity
UACC-257 = experiment: Growth inhibition of human UACC257 cells assessed as cell growth at 10^-4 M incubated for 48 hrs by sulforhodamine B assay relative to control; conditions: UACC-257, 48 h, read-out: Activity
A498 [11] = experiment: Growth inhibition of human A498 cells assessed as cell growth at 10^-4 M incubated for 48 hrs by sulforhodamine B assay relative to control; conditions: A498, 48 h, read-out: Activity
UO-31 = experiment: Growth inhibition of human UO31 cells assessed as cell growth at 10^-4 M incubated for 48 hrs by sulforhodamine B assay relative to control; conditions: UO-31, 48 h, read-out: Activity
Hs-578T = experiment: Growth inhibition of human Hs 578T cells assessed as cell growth at 10^-4 M incubated for 48 hrs by sulforhodamine B assay relative to control; conditions: read-out: Activity
T47D = experiment: Growth inhibition of human T47D cells assessed as cell growth at 10^-4 M incubated for 48 hrs by sulforhodamine B assay relative to control; conditions: read-out: Activity
SF-295 = experiment: Growth inhibition of human SF295 cells assessed as cell growth at 10^-5 M incubated for 48 hrs by sulforhodamine B assay relative to control; conditions: SF-295, 48 h, read-out: Activity
SK-OV-3 [12] = experiment: Growth inhibition of human SKOV3 cells assessed as cell growth at 10^-5 M incubated for 48 hrs by sulforhodamine B assay relative to control; conditions: SK-OV-3, 48 h, read-out: Activity
UACC-62 = experiment: Growth inhibition of human UACC62 cells assessed as cell growth at 10^-4 M incubated for 48 hrs by sulforhodamine B assay relative to control; conditions: UACC-62, 48 h, read-out: Activity
[13] = read-out: pLC50 (the source's name) (converted)

| Compound | GI50 (A549; read-out: GI50) | CC50 (A549; [13]) | growth at 0.01 µM (MDA-MB-435) | growth at 0.1 µM (HCT-15) | growth at 0.1 µM (U-251) | growth at 0.1 µM (SK-MEL-2 [1]) | growth at 1 µM (MCF7) | growth at 10 µM (NCI-H322M [2]) | TGI (A549; read-out: TGI) | TGI (A549; read-out: pTGI (converted)) | GI50 (A549; read-out: pGI50 (converted)) | growth at 1 µM (COLO 205) | growth at 1 µM (LOX IMVI [3]) | growth at 1 µM (SK-OV-3 [4]) | growth at 10 µM (HOP-62) | growth at 10 µM (SNB-75 [5]) | growth at 10 µM (SK-MEL-2 [6]) | growth at 10 µM (SK-MEL-5) | growth at 10 µM (OVCAR-8) | growth at 10 µM (A498 [7]) | also measured |
| --- | --- | --- | --- | --- | --- | --- | --- | --- | --- | --- | --- | --- | --- | --- | --- | --- | --- | --- | --- | --- | --- |
| C#C[C@@]1(O)[C@@H](CO)O[C@@H](n2cc(Br)c3c(N)ncnc32)[C@@H]1O | 90 to 283 nM | > 100000 nM | 89 to 92% | 45 to 63% | 2 to 11% | 48 to 75% | 3 to 5% | -12% |  |  |  |  |  |  |  |  |  |  |  |  |  |
| C#C[C@@]1(O)[C@@H](CO)O[C@@H](n2cc(I)c3c(N)ncnc32)[C@@H]1O | 297 to 589 nM |  | 83 to 93% | 51 to 60% | 40 to 45% | 63 to 77% | 1 to 6% |  | > 100000 nM | > 100000 nM |  |  |  |  |  |  |  |  |  |  | CC50 (A549; read-out: LC50 (the source's name)): > 100000 nM |
| C#C[C@@]1(O)[C@@H](CO)O[C@@H](n2ccc3c(N)ncnc32)[C@@H]1O |  | > 100000 nM | 92% | 93% | 107% | 90% | 13% | -16% | > 100000 nM | > 100000 nM | 1320 nM | 40% | 40% | 52% | -9% | -64% | -15% | -95% | -32% | -60% | growth at 100 µM (HL-60(TB)): -38%; growth at 100 µM (RPMI-8226): 2%; growth at 100 µM (NCI-H23): -35%; growth at 100 µM (NCI-H322M [8]): -65%; growth at 100 µM (NCI-H522): -42%; growth at 100 µM (SNB-19): -32%; growth at 100 µM (SNB-75 [9]): -42%; growth at 100 µM (LOX IMVI [10]): -92%; growth at 100 µM (SK-MEL-28): -47%; growth at 100 µM (UACC-257): -62%; growth at 100 µM (A498 [11]): -47%; growth at 100 µM (UO-31): -37%; growth at 100 µM (Hs-578T): 2%; growth at 100 µM (T47D): -71%; growth at 10 µM (SF-295): -28%; growth at 10 µM (SK-OV-3 [12]): -20%; growth at 100 µM (UACC-62): -65% |
| C#C[C@@]1(O)[C@@H](CO)O[C@@H](n2cc(F)c3c(N)ncnc32)[C@@H]1O |  | > 100000 nM | 98% | 79% | 99% | 101% | -8% | -17% | 2640 nM | 2630 nM | 380 nM | 7% | 4% | 12% | -4% | -90% | -26% | -89% | -12% | -77% | growth at 100 µM (HL-60(TB)): -32%; growth at 100 µM (RPMI-8226): -21%; growth at 100 µM (NCI-H23): -25%; growth at 100 µM (NCI-H322M [8]): -30%; growth at 100 µM (NCI-H522): -40%; growth at 100 µM (SNB-19): -45%; growth at 100 µM (SNB-75 [9]): -86%; growth at 100 µM (LOX IMVI [10]): -90%; growth at 100 µM (SK-MEL-28): 19%; growth at 100 µM (UACC-257): -30%; growth at 100 µM (A498 [11]): -75%; growth at 100 µM (UO-31): -30%; growth at 100 µM (Hs-578T): 8%; growth at 100 µM (T47D): -77%; growth at 10 µM (SF-295): -69%; growth at 10 µM (SK-OV-3 [12]): -26%; growth at 100 µM (UACC-62): -78% |
| C#C[C@@]1(O)[C@@H](CO)O[C@@H](n2cc(Cl)c3c(N)ncnc32)[C@@H]1O | 138 to 237 nM | > 100000 nM | 88 to 89% | 57 to 61% |  | 47 to 66% | 1 to 4% |  |  |  |  |  |  |  |  |  |  |  |  |  |  |

From ChEMBL document CHEMBL4270599, “Synthesis of a 3'-C-ethynyl-β-d-ribofuranose purine nucleoside library: Discovery of C7-deazapurine analogs as potent antiproliferative nucleosides” (Eur J Med Chem, 2018)
